Where “and” joins values, the source holds several entries; their conditions need not be identical. Identical values can stand only once.
Assay: xn = mol fraction of the nth substance listed
Conditions: 96 kPa, Liquid, Pycnometric method

C1CCC2=NCCCN2CC1 [1,8-diaza-7-bicyclo[5.4.0]undecene] + OCC(O)CO
mass density
Conditions | 288.15 K | 293.15 K | 298.15 K | 303.15 K | 308.15 K | 313.15 K | 318.15 K | 323.15 K | 328.15 K
x1 = 0.0501 | 1251.8 kg/m3 | – | 1245.4 kg/m3 | – | 1239 kg/m3 | – | 1232.2 kg/m3 | – | 1224.9 kg/m3
x1 = 0.0909 | 1238.4 kg/m3 | – | 1231.7 kg/m3 | – | 1224.7 kg/m3 | – | 1217.1 kg/m3 | – | 1208.3 kg/m3
x1 = 0.0926 | – | 1236.7 kg/m3 | – | 1229.7 kg/m3 | – | 1222.9 kg/m3 | – | 1216 kg/m3 | –
x1 = 0.1667 | 1211.2 kg/m3 | – | 1204.2 kg/m3 | – | 1196.4 kg/m3 | – | 1188.2 kg/m3 | – | 1180.2 kg/m3
x1 = 0.1902 | – | 1197.8 kg/m3 | – | 1191.9 kg/m3 | – | 1184.5 kg/m3 | – | 1177.6 kg/m3 | –
x1 = 0.2 | 1200.6 kg/m3 | – | 1192.3 kg/m3 | – | 1184.9 kg/m3 | – | 1176.9 kg/m3 | – | 1170.9 kg/m3 and 1169.4 kg/m3
x1 = 0.2153 | 1195.3 kg/m3 | – | 1187 kg/m3 | – | 1179.6 kg/m3 | – | 1171.5 kg/m3 | – | 1164.2 kg/m3
x1 = 0.2306 | 1190.3 kg/m3 | – | 1181.8 kg/m3 | – | 1174.6 kg/m3 | – | 1166.7 kg/m3 | – | 1158.9 kg/m3
x1 = 0.2998 | – | 1161.7 kg/m3 | – | 1156.4 kg/m3 | – | 1149.2 kg/m3 | – | 1142.5 kg/m3 | –
x1 = 0.3059 | 1167.2 kg/m3 | – | 1158 kg/m3 | – | 1150.5 kg/m3 | – | 1142.9 kg/m3 | – | 1136 kg/m3
x1 = 0.3333 | 1159.4 kg/m3 | – | 1149.8 kg/m3 | – | 1142.5 kg/m3 | – | 1134.9 kg/m3 | – | 1128 kg/m3
x1 = 0.3996 | – | 1133.2 kg/m3 | – | 1128.3 kg/m3 | – | 1121.2 kg/m3 | – | 1114.6 kg/m3 | –
x1 = 0.4011 | 1141.5 kg/m3 | – | 1131.6 kg/m3 | – | 1124.1 kg/m3 | – | 1117.3 kg/m3 | – | 1109.7 kg/m3
x1 = 0.5 | 1117.4 kg/m3 | – | 1107.1 kg/m3 and 1108.1 kg/m3 | – | 1100.2 kg/m3 | – | 1091.1 kg/m3 and 1093.5 kg/m3 | – | 1086 kg/m3
x1 = 0.5032 | – | 1108.7 kg/m3 | – | 1102.3 kg/m3 | – | 1095.3 kg/m3 | – | 1087.4 kg/m3 | –
x1 = 0.5632 | 1102.9 kg/m3 | – | 1093.7 kg/m3 | – | 1086.4 kg/m3 | – | 1079.3 kg/m3 | – | 1071.9 kg/m3
x1 = 0.5995 | – | 1088 kg/m3 | – | 1081.9 kg/m3 | – | 1075.9 kg/m3 | – | 1068.3 kg/m3 | –
x1 = 0.625 | 1089.8 kg/m3 | – | 1081 kg/m3 | – | 1073.9 kg/m3 | – | 1066.7 kg/m3 | – | 1059.1 kg/m3
x1 = 0.6992 | – | 1069.6 kg/m3 | – | 1064.2 kg/m3 | – | 1056.8 kg/m3 | – | 1049.7 kg/m3 | –
x1 = 0.75 | 1066.1 kg/m3 and 1065.4 kg/m3 | – | 1058.1 kg/m3 | – | 1050.9 kg/m3 | – | 1042.7 kg/m3 | – | 1035.3 kg/m3
x1 = 0.7998 | – | 1052.3 kg/m3 | – | 1045.7 kg/m3 | – | 1038.7 kg/m3 | – | 1031.5 kg/m3 | –
x1 = 0.8333 | 1051.7 kg/m3 | – | 1044.3 kg/m3 | – | 1037 kg/m3 | – | 1028.7 kg/m3 | – | 1021.1 kg/m3
x1 = 0.9001 | – | 1030.8 kg/m3 | – | 1028.9 kg/m3 | – | 1021.2 kg/m3 | – | 1013.9 kg/m3 | –
x1 = 1 | 1020.6 kg/m3 | 1017.1 kg/m3 | 1014.1 kg/m3 | 1010.9 kg/m3 | 1007.4 kg/m3 | 1004.6 kg/m3 | 1000.8 kg/m3 | 998.4 kg/m3 | 994.2 kg/m3
